Reference: US20230250070A1, “DIHYDROOXAZOLE AND THIOUREA DERIVATIVES MODULATING THE NLRP3 INFLAMMASOME PATHWAY” (AC IMMUNE SA, priority 2020, published 2023)

Experiments:
Assay type in all cases: cell-based
[1] = test system: NLRP3 inflammasome pathway; test: NLRP3 inflammasome pathway activation assay, MSU stimulation, IL-1β release (AlphaLISA); settings: PMA-differentiated, LPS-primed human monocyte-like cells, MSU 150 µg/ml for 3 h
Procedure: (§1) The following assays were used to determine the inhibitory activity of test compounds on the NLRP3 inflammasome pathway using common stimuli Nigericin (Invivogen) or monosodium urate crystals (MSU) (Invivogen).
(§2) Human monocyte-like cells were cultured in RPMI-1640 Glutamax medium supplemented with 10% heat inactivated FCS and 50 U/ml penicillin-streptomycin (Life Technologies).
(§3) Human monocyte-like cells were seeded at 75000 per well in a 96-well plate and were differentiated overnight into macrophages with 10 ng/ml PMA (Phorbol Myristate Acetate). The following day, medium containing 10 ng/ml LPS (Lipopolysaccharide) were added. After 3 hours of LPS priming, concentrations of test compound in the range from 100 µM to 6 nM were added 30 min prior to NLRP3 inflammasome pathway stimulation with Nigericin 3.75 µM or MSU 150 µg/ml for 3 h.
(§4) For IL-1β quantification, supernatants were analyzed using AlphaLISA kits according to the manufacturer’s instructions (Perkin Elmer AlphaLISA AL220F). Briefly, in a 384-well OptiPlate™ microplate, 5 µl of sample was mixed, with 20 µl of AlphaLISA Anti-Analyte Acceptor beads (10 µg/mL final) and Biotinylated Antibody Anti-Analyte (1 nM final). Then, incubated 60 minutes at RT, then 25 µL of 2X SA-Donor beads (40 µg/mL final) were added and incubated 30 minutes at RT in the dark. Reading was done using an EnVision-Alpha Reader (PerkinElmer).
(§5) IC50(concentration corresponding to 50% inhibition) were determined using GraphPad Prism 8.

[2] = test system: NLRP3 inflammasome pathway; test: Human whole blood assay (LPS-ATP), IL-1β levels by AlphaLISA; settings: LPS priming, ATP activation 1 h, IL-1β in plasma
Procedure: • Preliminary blood hemolysis assessment was performed before running the assay. Blood samples were centrifuged at 1000 g for 10 min. Then, 50 to 100 µL of blood were transferred into Corning™96-Well Clear flat bottom plate. Hemolysis was assessed via Tecan at 414 nm wavelength. Hemolysis O.D. values should be lower than 1. • Add 10 µL LPS 9× or CTRL following plate layout. • Add 80 µL of each whole blood/well in PP low-bind 96-well plate. • Incubate for 2h30 to 3 h at 37° C. and 5% CO2. • Add 10 µL of compounds 10× or control in wells following plate layout. • Incubate for 30 min at 37° C. and 5% CO2. • Add 11 µL ATP 10× or control in all wells following plate layout. • Incubate for 1 h at 37° C. and 5% CO2. • Collect 1 h timepoint → Centrifuge the plate 1000 g 10 min, collect the plasma (40 to 50 µL) and store at -20° C. • Measure IL-1β levels by AlphaLISA
as §4, §5

[3] = test system: NLRP3 inflammasome pathway; test: NLRP3 inflammasome pathway activation assay, Nigericin stimulation, IL-1β release (AlphaLISA); settings: PMA-differentiated, LPS-primed human monocyte-like cells, Nigericin 3.75 µM for 3 h
Procedure: as §1, §2, §3, §4, §5

| Compound | IC50 [1] | IC50 [2] | IC50 [3] | IC50 ([3]; Homo sapiens, 3 h) |
| --- | --- | --- | --- | --- |
| CC(C)OC(=O)C1(c2ccon2)CN=C(Nc2c3c(cc4c2CCC4)CCC3)O1 (single isomer, unassigned) [Example 59, isopropyl 2-((1,2,3,5,6,7-hexahydro-s-indacen-4-yl)amino)-5-(isoxazol-3-yl)-4,5-dihydrooxazole-5-carboxylate] | < 1000 nM | 1000 to 10000 nM | – | – |
| O=C(OC1CCCC1)C1(c2ccon2)CN=C(Nc2c3c(cc4c2CCC4)CCC3)O1 (centres unmarked) [Example 58, Cyclopentyl 2-((1,2,3,5,6,7-hexahvdro-s-indacen-4-vl)amino)-5-(isoxazol-3-yl)-4,5-dihydrooxazole-5-carboxylate] | < 1000 nM | 1000 to 10000 nM | – | – |
| CCOC(=O)C1(c2ccccc2)CN=C(Nc2c3c(cc4c2CCC4)CCC3)O1 (centres unmarked) [Example 2, Ethyl 2-((1,2,3,5,6,7-hexahydro-s-indacen-4-yl)amino)-5-phenyl-4,5-dihvdrooxazole-5-carboxylate] | 1000 to 10000 nM | – | 1000 to 10000 nM | – |
| CCOC(=O)C1(c2ncccn2)CN=C(Nc2c3c(cc4c2CCC4)CCC3)O1 (racemic) [Example 50, ethyl 2-((1,2,3,5,6,7-hexahydro-s-indacen-4-yl)amino)-5-(pyrimidin-2-yl)-4,5-dihydrooxazole-5-carboxylate] | 1000 to 10000 nM | – | – | < 1000 nM |
| Ethyl 2-((1,2,3,5,6,7-hexahydro-s-indacen-4-yl)amino)-5-(tetrahvdro-2H-pyran-4-yl)-4,5-dihydrooxazole-5-carboxylate [Example 12] | 1000 to 10000 nM | – | 1000 to 10000 nM | – |
| CCOC(=O)C1(c2ccccn2)CN=C(Nc2c3c(cc4c2CCC4)CCC3)O1 (single isomer, unassigned) [Example 9, Ethyl 2-((1,2,3,5,6,7-hexahydro-s-indacen-4-yl)amino)-5-(pyridin-2-yl)-4,5-dihydrooxazole-5-carboxylate] | < 1000 nM | – | < 1000 nM | – |
| CCOC(=O)C1(c2ccc(Cl)cc2)CN=C(Nc2c3c(cc4c2CCC4)CCC3)O1 (racemic) [Example 10, Ethyl 5-(4-chlorophenyl)-2-((1,2,3,5,6,7-hexahydro-s-indacene-4-yl)amino)-4,5-dihydrooxazole-5-carboxylate] | 1000 to 10000 nM | – | – | 1000 to 10000 nM |
| CCOC(=O)C1(c2cc(C(C)(C)O)on2)OC(Nc2c3c(cc4c2CCC4)CCC3)=NC1C (racemic) [Example 52, ethyl 2-((1,2,3,5,6,7-hexahydro-s-indacen-4-yl)amino)-5-(5-(2-hydroxypropan-2-yl)isoxazol-3-yl)-4-methyl-4,5-dihydrooxazole-5-carboxylate] | 1000 to 10000 nM | – | – | < 1000 nM |
| CCOC(=O)C1(c2cccc(Cl)c2)CN=C(Nc2c3c(cc4c2CCC4)CCC3)O1 (single isomer, unassigned) [Example 13a, Ethyl 5-(3-chlorophenyl)-2-((1,2,3,5,6,7-hexahydro-s-indacen-4-yl)amino)-4,5-dihydrooxazole-5-carboxylate] | < 1000 nM | – | < 1000 nM | – |
| CCOC(=O)C(O)(CNC(=S)Nc1c2c(cc3c1CCC3)CCC2)c1cc(C(C)(C)O)on1 (single isomer, unassigned) [Example 14a, Ethyl 3-(3-(1,2,3,5,6,7-hexahydro-s-indacen-4-yl)thioureido)-2-hydroxy-2-(5-(2-hydroxypropan-2-yl)isoxazol-3-yl)propanoate] | < 1000 nM | – | < 1000 nM | – |
| O=C(O)C1(c2nccs2)CN=C(Nc2c3c(cc4c2CCC4)CCC3)O1 (centres unmarked) [Example 24, 2-((1,2,3,5,6,7-hexahydro-s-indacen-4-yl)amino)-5-(thiazol-2-yl)-4,5-dihydrooxazole-5-carboxylic acid] | 1000 to 10000 nM | 1000 to 10000 nM | – | – |
| CCOC(=O)C1(c2ccccc2)CN=C(Nc2c3c(c(F)c4c2CCC4)CCC3)O1 (racemic) [Example 30, ethyl 2-((8-fluoro-1,2,3,5,6,7-hexahydro-s-indacen-4-yl)amino)-5-phenyl-4,5-dihydrooxazole-5-carboxylate] | < 1000 nM | – | – | 1000 to 10000 nM |
| CCOC(=O)C1(c2nccn2C)CN=C(Nc2c3c(cc4c2CCC4)CCC3)O1 (single isomer, unassigned) [Example 5, Ethyl 2-((1,2,3,5,6,7-hexahydro-s-indacen-4-yl)amino)-5-(1-methyl-1H-imidazol-2-yl)-4,5-dihydrooxazole-5-carboxylate] | < 1000 nM | – | < 1000 nM | – |
| CCOC(=O)C1(c2ccccc2)CN=C(Nc2c3c(cc4c2CCC4)CCC3)O1 (racemic) [Example 1, Ethyl 2-((1,2,3,5,6,7-hexahydro-s-indacen-4-yl)amino)-5-phenyl-4,5-dihydrooxazole-5-carboxylate] | < 1000 nM | – | – | < 1000 nM |
| CCOC(=O)C1(c2cc(C(C)(C)O)on2)CN=C(Nc2c3c(cc4c2CCC4)CCC3)O1 (centres unmarked) [Example 15, Ethyl 2-((1,2,3,5,6,7-hexahvdro-s-indacen-4-yl)amino)-5-(5-(2-hydroxypropan-2-yl)isoxazol-3-yl)-4,5-dihydrooxazole-5-carboxylate] | < 1000 nM | – | – | < 1000 nM |
| CCOC(=O)C1(c2nccn2C)CN=C(Nc2c3c(cc4c2CCC4)CCC3)O1 (centres unmarked) [Example 4, Ethyl 2-((1,2,3,5,6,7-hexahydro-s-indacen-4-vl)amino)-5-(1-methyl-1H-imidazol-2-yl)-4,5-dihydrooxazole-5-carboxylate] | < 1000 nM | – | < 1000 nM | – |
| CCOC(=O)C(O)(CNC(=S)Nc1c2c(cc3c1CCC3)CCC2)c1cc(C(C)(C)O)on1 (racemic) [Example 14, Ethyl 3-(3-(1,2,3,5,6,7-hexahydro-s-indacen-4-yl)thioureido)-2-hydroxy-2-(5-(2-hydroxypropan-2-yl)isoxazol-3-yl)propanoate] | < 1000 nM | – | < 1000 nM | – |
| CCOC(=O)C1(c2cccc(Cl)c2)CN=C(Nc2c3c(cc4c2CCC4)CCC3)O1 (centres unmarked) [Example 13, Ethyl 5-(3-chlorophenyl)-2-((1,2,3,5,6,7-hexahydro-s-indacene-4-yl)amino)-4,5-dihvdrooxazole-5-carboxylate] | < 1000 nM | – | – | < 1000 nM |
| CCOC(=O)C1(c2cccnc2)CN=C(Nc2c3c(cc4c2CCC4)CCC3)O1 (centres unmarked) [Example 11a, Ethyl 2-((1,2,3,5,6,7-hexahydro-s-indacen-4-yl)amino)-5-(pyridin-3-yl)-4,5-dihvdrooxazole-5-carboxylate] | < 1000 nM | – | – | < 1000 nM |
| CCOC(=O)C1(c2nccn2C)CN=C(Nc2c3c(cc4c2CCC4)CCC3)O1 (centres unmarked) [Example 3, Ethyl 2-((1,2,3,5,6,7-hexahvdro-s-indacen-4-vl)amino)-5-(1-methyl-1H-imidazol-2-yl)-4,5-dihydrooxazole-5-carboxylate] | < 1000 nM | – | – | < 1000 nM |
| CCOC(=O)C1(c2ccccn2)CN=C(Nc2c3c(cc4c2CCC4)CCC3)O1 (racemic) [Example 8, Ethyl 2-((1,2,3,5,6,7-hexahydro-s-indacen-4-yl)amino)-5-(pyridin-2-yl)-4,5-dihydrooxazole-5-carboxylate] | < 1000 nM | – | – | < 1000 nM |
| CCOC(=O)C(O)(CNC(=S)Nc1c2c(cc3c1CCC3)CCC2)c1cc(C(C)C)on1 (centres unmarked) [Example 46, ethyl 3-(3-(1,2,3,5,6,7-hexahydro-s-indacen-4-yl)thioureido)-2-hydroxy-2-(5-isopropylisoxazol-3-yl)propanoate] | 1000 to 10000 nM | – | < 1000 nM | – |
